Experimental data reported in ChEMBL document CHEMBL3596165, “Synthesis, structure elucidation and identification of antiproliferative activities of a novel class of thiophene bioisosteres bearing the privileged 7,8-dihydroimidazo[2,1-c][1,2,4]triazin-4(6H)-one scaffold” (Bioorg Med Chem, 2015).

Legend:
HeLa [1] = test: Antiproliferative activity against human HeLa cells at 50 ug/ml after 24 hrs by BrdUrd incorporation assay; format: functional; settings: read-out: GI
HeLa [2] = test: Antiproliferative activity against human HeLa cells at 50 ug/ml after 48 hrs by BrdUrd incorporation assay; format: functional; settings: read-out: GI
HeLa [3] = test: Antiproliferative activity against human HeLa cells at 50 ug/ml after 72 hrs by BrdUrd incorporation assay; format: functional; settings: read-out: GI
T47D [4] = test: Antiproliferative activity against human T47D cells at 50 ug/ml after 24 hrs by BrdUrd incorporation assay; format: functional; settings: read-out: GI
T47D [5] = test: Antiproliferative activity against human T47D cells at 50 ug/ml after 48 hrs by BrdUrd incorporation assay; format: functional; settings: read-out: GI
T47D [6] = test: Antiproliferative activity against human T47D cells at 50 ug/ml after 72 hrs by BrdUrd incorporation assay; format: functional; settings: read-out: GI
Vero [7] = test: Antiproliferative activity against African green monkey Vero cells at 50 ug/ml after 24 hrs by BrdUrd incorporation assay; format: cell-based; settings: chlorocebus sabaeus
[8] = Antiproliferative activity against African green monkey Vero cells at 50 ug/ml after 48 hrs by BrdUrd incorporation assay; format: cell-based; settings: chlorocebus sabaeus, read-out: GI
[9] = Antiproliferative activity against African green monkey Vero cells at 50 ug/ml after 72 hrs by BrdUrd incorporation assay; format: cell-based; settings: chlorocebus sabaeus, read-out: GI
A549 [10] = test: Antiproliferative activity against human A549 cells at 50 ug/ml after 24 hrs by BrdUrd incorporation assay; format: functional; settings: A549, 24 h, read-out: GI
A549 [11] = test: Antiproliferative activity against human A549 cells at 50 ug/ml after 48 hrs by BrdUrd incorporation assay; format: functional; settings: A549, 48 h, read-out: GI
A549 [12] = test: Antiproliferative activity against human A549 cells at 50 ug/ml after 72 hrs by BrdUrd incorporation assay; format: functional; settings: A549, 72 h, read-out: GI
TOV112D [13] = test: Antiproliferative activity against human TOV112D cells at 50 ug/ml after 24 hrs by BrdUrd incorporation assay; format: functional; settings: read-out: GI
TOV112D [14] = test: Antiproliferative activity against human TOV112D cells at 50 ug/ml after 48 hrs by BrdUrd incorporation assay; format: functional; settings: read-out: GI
TOV112D [15] = test: Antiproliferative activity against human TOV112D cells at 50 ug/ml after 72 hrs by BrdUrd incorporation assay; format: functional; settings: read-out: GI
Vero [16] = test: Antiproliferative activity against African green monkey Vero cells after 24 hrs by BrdUrd incorporation assay; format: cell-based; settings: chlorocebus sabaeus
Vero [17] = test: Antiproliferative activity against African green monkey Vero cells after 48 hrs by BrdUrd incorporation assay; format: cell-based; settings: Chlorocebus sabaeus
Vero [18] = test: Antiproliferative activity against African green monkey Vero cells after 72 hrs by BrdUrd incorporation assay; format: cell-based; settings: Chlorocebus sabaeus
A549 [19] = test: Antiproliferative activity against human A549 cells after 24 hrs by BrdUrd incorporation assay; format: functional, cell-based; settings: A549, 24 h
A549 [20] = test: Antiproliferative activity against human A549 cells after 48 hrs by BrdUrd incorporation assay; format: functional, cell-based; settings: A549, 48 h
A549 [21] = test: Antiproliferative activity against human A549 cells after 72 hrs by BrdUrd incorporation assay; format: functional, cell-based; settings: A549, 72 h
HeLa [22] = test: Antiproliferative activity against human HeLa cells after 24 hrs by BrdUrd incorporation assay; format: functional, cell-based
HeLa [23] = test: Antiproliferative activity against human HeLa cells after 48 hrs by BrdUrd incorporation assay; format: functional, cell-based
HeLa [24] = test: Antiproliferative activity against human HeLa cells after 72 hrs by BrdUrd incorporation assay; format: functional, cell-based
T47D [25] = test: Antiproliferative activity against human T47D cells after 24 hrs by BrdUrd incorporation assay; format: functional, cell-based
T47D [26] = test: Antiproliferative activity against human T47D cells after 48 hrs by BrdUrd incorporation assay; format: functional, cell-based
T47D [27] = test: Antiproliferative activity against human T47D cells after 72 hrs by BrdUrd incorporation assay; format: functional, cell-based
TOV112D [28] = test: Antiproliferative activity against human TOV112D cells after 24 hrs by BrdUrd incorporation assay; format: functional, cell-based
TOV112D [29] = test: Antiproliferative activity against human TOV112D cells after 48 hrs by BrdUrd incorporation assay; format: functional, cell-based
TOV112D [30] = test: Antiproliferative activity against human TOV112D cells after 72 hrs by BrdUrd incorporation assay; format: functional, cell-based

Row | SMILES | inhibition of growth at 50 µg/mL (HeLa [1]) [%] | inhibition of growth at 50 µg/mL (HeLa [2]) [%] | inhibition of growth at 50 µg/mL (HeLa [3]) [%] | inhibition of growth at 50 µg/mL (T47D [4]) [%] | inhibition of growth at 50 µg/mL (T47D [5]) [%] | inhibition of growth at 50 µg/mL (T47D [6]) [%] | growth inhibition (GI) (Vero [7]) [%] | inhibition at 48 h, 50 ug/ml [8] [%] | inhibition at 72 h, 50 ug/ml [9] [%] | inhibition of growth at 50 µg/mL (A549 [10]) [%] | inhibition of growth at 50 µg/mL (A549 [11]) [%] | inhibition of growth at 50 µg/mL (A549 [12]) [%] | inhibition of growth at 50 µg/mL (TOV112D [13]) [%] | inhibition of growth at 50 µg/mL (TOV112D [14]) [%] | inhibition of growth at 50 µg/mL (TOV112D [15]) [%] | IC50 (Vero [16]) [µM] | IC50 (Vero [17]) [µM] | IC50 (Vero [18]) [µM] | IC50 (A549 [19]) [µM] | IC50 (A549 [20]) [µM] | also measured
1 | Cc1cccc(N2CCn3c2nnc(-c2ccco2)c3=O)c1C | 60 | 75 | 90 | 0 | 15 | 25 | – | – | – | – | – | – | – | – | – | – | – | – | – | – | –
2 | Cc1ccccc1N1CCn2c1nnc(-c1cccs1)c2=O | 45 | 75 | 90 | 80 | 90 | 100 | 25 | 50 | 90 | 80 | 95 | 100 | 90 | 100 | 100 | > 160 | 160 | 90 | 100 | 80 | IC50 (A549 [21]): 80 µM; IC50 (HeLa [22]): > 160 µM; IC50 (HeLa [23]): 110 µM; IC50 (HeLa [24]): 90 µM; IC50 (T47D [25]): 100 µM; IC50 (T47D [26]): 90 µM; IC50 (T47D [27]): 80 µM; IC50 (TOV112D [28]): 90 µM; IC50 (TOV112D [29]): 80 µM; IC50 (TOV112D [30]): 80 µM
3 | Cc1ccc(N2CCn3c2nnc(-c2ccco2)c3=O)cc1 | 50 | 50 | 80 | 40 | 60 | 80 | – | – | – | – | – | – | – | – | – | – | – | – | – | – | –
4 | O=c1c(-c2ccco2)nnc2n1CCN2c1cccc(Cl)c1 | 80 | 80 | 95 | 20 | 50 | 80 | – | – | – | – | – | – | – | – | – | – | – | – | – | – | –
5 | O=c1c(-c2ccco2)nnc2n1CCN2c1ccc(Cl)c(Cl)c1 | 50 | 50 | 95 | 10 | 20 | 40 | – | – | – | – | – | – | – | – | – | – | – | – | – | – | –
6 | O=c1c(-c2cccs2)nnc2n1CCN2c1ccc(Cl)cc1 | 50 | 90 | 100 | 90 | 100 | 100 | 25 | 60 | 90 | 80 | 90 | 100 | 75 | 90 | 100 | > 150 | 130 | 80 | 90 | 80 | IC50 (A549 [21]): 80 µM; IC50 (HeLa [22]): 150 µM; IC50 (HeLa [23]): 80 µM; IC50 (HeLa [24]): 80 µM; IC50 (T47D [25]): 80 µM; IC50 (T47D [26]): 80 µM; IC50 (T47D [27]): 80 µM; IC50 (TOV112D [28]): 100 µM; IC50 (TOV112D [29]): 80 µM; IC50 (TOV112D [30]): 80 µM
7 | O=c1c(-c2ccco2)nnc2n1CCN2c1ccccc1 | 50 | 75 | 100 | 50 | 85 | 95 | – | – | – | – | – | – | – | – | – | – | – | – | – | – | –
8 | O=c1c(-c2cccs2)nnc2n1CCN2c1ccccc1 | 70 | 100 | 100 | 95 | 100 | 100 | 50 | 75 | 90 | 80 | 90 | 100 | 90 | 100 | 100 | 170 | 110 | 90 | 110 | 90 | IC50 (A549 [21]): 80 µM; IC50 (HeLa [22]): 120 µM; IC50 (HeLa [23]): 90 µM; IC50 (HeLa [24]): 80 µM; IC50 (T47D [25]): 90 µM; IC50 (T47D [26]): 90 µM; IC50 (T47D [27]): 80 µM; IC50 (TOV112D [28]): 90 µM; IC50 (TOV112D [29]): 80 µM; IC50 (TOV112D [30]): 80 µM
9 | Cc1cccc(N2CCn3c2nnc(-c2cccs2)c3=O)c1C | 50 | 65 | 75 | 90 | 100 | 100 | 25 | 55 | 90 | 45 | 60 | 90 | 40 | 75 | 95 | > 150 | 140 | 90 | > 150 | 130 | IC50 (A549 [21]): 90 µM; IC50 (HeLa [22]): 150 µM; IC50 (HeLa [23]): 120 µM; IC50 (HeLa [24]): 100 µM; IC50 (T47D [25]): 90 µM; IC50 (T47D [26]): 80 µM; IC50 (T47D [27]): 80 µM; IC50 (TOV112D [28]): > 150 µM; IC50 (TOV112D [29]): 100 µM; IC50 (TOV112D [30]): 80 µM
10 | Cc1ccc(N2CCn3c2nnc(-c2cccs2)c3=O)cc1 | 80 | 100 | 100 | 95 | 100 | 100 | 90 | 95 | 100 | 90 | 95 | 100 | 90 | 100 | 100 | 90 | 80 | 80 | 90 | 90 | IC50 (A549 [21]): 80 µM; IC50 (HeLa [22]): 100 µM; IC50 (HeLa [23]): 80 µM; IC50 (HeLa [24]): 80 µM; IC50 (T47D [25]): 90 µM; IC50 (T47D [26]): 80 µM; IC50 (T47D [27]): 80 µM; IC50 (TOV112D [28]): 90 µM; IC50 (TOV112D [29]): 80 µM; IC50 (TOV112D [30]): 80 µM
11 | O=c1c(-c2ccco2)nnc2n1CCN2c1ccccc1Cl | 80 | 80 | 100 | 5 | 15 | 25 | – | – | – | – | – | – | – | – | – | – | – | – | – | – | –
12 | COc1ccccc1N1CCn2c1nnc(-c1ccco1)c2=O | 25 | 35 | 80 | 0 | 30 | 70 | – | – | – | – | – | – | – | – | – | – | – | – | – | – | –
13 | O=c1c(-c2ccco2)nnc2n1CCN2c1ccc(Cl)cc1 | 50 | 75 | 90 | 0 | 15 | 15 | – | – | – | – | – | – | – | – | – | – | – | – | – | – | –
14 | Cc1ccccc1N1CCn2c1nnc(-c1ccco1)c2=O | 25 | 25 | 50 | 25 | 50 | 75 | – | – | – | – | – | – | – | – | – | – | – | – | – | – | –
